The values that follow come from US10829473B2, “Modulators of the cystic fibrosis transmembrane conductance regulator protein and methods of use” (AbbVie Overseas S.Á.R.L., priority 2017, dated 2020).

Like-named read-outs stand apart in the source and are kept apart here.

The target in this assay is T1, F508delCFTR (Homo sapiens, UniProt P13569, DEL508-508).
T1 construct: expressed in transfected cells; host or cells: CFBE41o- human lung derived epithelial cells (CFBE41o-F508delCFTR-HRP), doxycycline-inducible
The experiment in a line: Cell Surface Expression-Horse Radish Peroxidase (CSE-HRP) Assay.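 For EC50 (with co-corrector): co-corrector chromenyl benzoic acid corrector at 2 or 3 µM.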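 For Maximum % activity (without co-corrector): % of on-plate positive control chromenyl benzoic acid corrector at 2 or 3 µM.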 The class given is cell-based. Particulars: for Maximum % activity (with co-corrector) / Emax: maximum at any tested concentration; for Emax: read-out: Maximum % activity (without co-corrector). The method in brief: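 Corrector compounds were given as 8-point 3-fold series from 20 or 30 μM, with or without a 2 μM co-corrector, for 18-24 h at 33 °C. Surface HRP was read by luminol luminescence as % of positive control; variable-Hill-slope sigmoidal fitting gave EC50 from triplicate plates.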

Where [1] appears, read: test compound with co-corrector.
[2] abbreviates: test compound with co-corrector, read-out: EC50 (with co-corrector).
The mark [3] stands for this setting: test compound without co-corrector.
The mark [4] stands for this setting: test compound without co-corrector, read-out: EC50 (without co-corrector).

T1 sequence (P13569 with tags, fused parts or gaps DEL508-508): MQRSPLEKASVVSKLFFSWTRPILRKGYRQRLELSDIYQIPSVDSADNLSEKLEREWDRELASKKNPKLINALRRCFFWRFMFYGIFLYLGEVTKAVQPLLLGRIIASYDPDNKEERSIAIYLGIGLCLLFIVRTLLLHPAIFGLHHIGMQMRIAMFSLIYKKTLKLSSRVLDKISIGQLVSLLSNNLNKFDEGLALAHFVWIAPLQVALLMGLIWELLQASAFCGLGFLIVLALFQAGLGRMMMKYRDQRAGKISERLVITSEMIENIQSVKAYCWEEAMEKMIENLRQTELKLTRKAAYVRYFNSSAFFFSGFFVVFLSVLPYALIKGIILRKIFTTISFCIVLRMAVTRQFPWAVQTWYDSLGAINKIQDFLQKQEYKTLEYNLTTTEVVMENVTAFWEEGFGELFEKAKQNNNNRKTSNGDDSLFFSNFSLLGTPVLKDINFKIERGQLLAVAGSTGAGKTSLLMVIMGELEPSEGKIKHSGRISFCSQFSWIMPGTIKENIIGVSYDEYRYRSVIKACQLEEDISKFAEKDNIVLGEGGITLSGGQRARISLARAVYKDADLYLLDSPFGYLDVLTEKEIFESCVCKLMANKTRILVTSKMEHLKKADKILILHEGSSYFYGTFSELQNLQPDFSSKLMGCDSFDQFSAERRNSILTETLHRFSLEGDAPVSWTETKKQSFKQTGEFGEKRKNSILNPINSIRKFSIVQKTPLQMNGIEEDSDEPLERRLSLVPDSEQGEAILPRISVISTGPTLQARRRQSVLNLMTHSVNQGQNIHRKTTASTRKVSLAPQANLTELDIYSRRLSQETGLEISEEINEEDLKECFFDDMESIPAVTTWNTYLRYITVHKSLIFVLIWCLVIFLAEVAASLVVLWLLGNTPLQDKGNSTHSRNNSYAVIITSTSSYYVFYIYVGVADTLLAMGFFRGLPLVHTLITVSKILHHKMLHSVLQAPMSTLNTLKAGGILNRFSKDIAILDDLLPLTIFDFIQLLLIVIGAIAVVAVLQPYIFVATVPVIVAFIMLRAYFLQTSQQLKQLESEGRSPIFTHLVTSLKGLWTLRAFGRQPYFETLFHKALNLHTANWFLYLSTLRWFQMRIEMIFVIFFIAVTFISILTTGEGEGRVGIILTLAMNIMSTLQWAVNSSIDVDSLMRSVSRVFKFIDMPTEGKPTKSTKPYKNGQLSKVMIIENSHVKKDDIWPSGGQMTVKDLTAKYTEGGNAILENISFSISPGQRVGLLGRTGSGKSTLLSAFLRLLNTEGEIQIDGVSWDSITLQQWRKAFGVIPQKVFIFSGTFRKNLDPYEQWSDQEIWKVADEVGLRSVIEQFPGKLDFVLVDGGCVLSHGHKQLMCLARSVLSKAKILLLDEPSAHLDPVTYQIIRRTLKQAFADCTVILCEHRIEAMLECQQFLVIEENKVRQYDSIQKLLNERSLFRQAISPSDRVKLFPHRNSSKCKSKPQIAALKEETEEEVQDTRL

Turning to `CC(C)OC1CCN(c2ncc(C3CCC3)cc2C2(C(=O)NS(=O)(=O)c3cccc4[nH]ccc34)CC2)CC1` [Example GI-104, 1-(5-cyclobutyl-2-{4-[(propan-2-yl)oxy]piperidin-1-yl}pyridin-3-yl)-N-(1H-indole-4-sulfonyl)cyclopropane-1-carboxamide], under setting [1], the “Maximum % activity (with co-corrector)” value is reported as “+++ (≥350)”. For the same molecule, the EC50 (in general, the concentration at which the effect is half-maximal) reads like this: under setting [2], below 3 µM; under setting [4], below 3 µM. Besides, under setting [3], the Emax was above 150%.
Regarding `CC(C)OC1CCN(c2ncc(C3CCC3)cc2C2(C(=O)NS(=O)(=O)c3cccc4ncccc34)CC2)CC1` [Example GI-105, 1-(5-cyclobutyl-2-{4-[(propan-2-yl)oxy]piperidin-1-yl}pyridin-3-yl)-N-(quinoline-5-sulfonyl)cyclopropane-1-carboxamide], the “Maximum % activity (with co-corrector)” value under setting [1] was “+++ (≥350)”. The EC50 reads like this: under setting [2], below 3 µM; under setting [4], below 3 µM. The Emax under setting [3] was above 150%.
For `CCc1cnc(OCC2CC2)c(C2(C(=O)NS(=O)(=O)c3cccc4ncccc34)CC2)c1` [Example GI-106, 1-[2-(cyclopropylmethoxy)-5-ethylpyridin-3-yl]-N-(quinoline-5-sulfonyl)cyclopropane-1-carboxamide], the “Maximum % activity (with co-corrector)” value under setting [1] is reported as “+++ (≥350)”. Besides, the concentration for a half-maximal effect (EC50) is below 3 µM under setting [2] and below 3 µM under setting [4]. Also, the Emax under setting [3] was above 150%.
Consider `CCc1cnc(OCC2CC2)c(C2(C(=O)NS(=O)(=O)c3cccc4nc(C)ccc34)CC2)c1` [Example GI-107, 1-[2-(cyclopropylmethoxy)-5-ethylpyridin-3-yl]-N-(2-methylquinoline-5-sulfonyl)cyclopropane-1-carboxamide], for which the “Maximum % activity (with co-corrector)” value under setting [1] is “+++ (≥350)”. The EC50 was below 3 µM under setting [2] and below 3 µM under setting [4]. Also, the Emax under setting [3] is above 150%.
In the case of `CCc1cnc(OCC2CC2)c(C2(C(=O)NS(=O)(=O)c3cccc4[nH]ccc34)CC2)c1` [Example GI-108, 1-[2-(cyclopropylmethoxy)-5-ethylpyridin-3-yl]-N-(1H-indole-4-sulfonyl)cyclopropane-1-carboxamide], the “Maximum % activity (with co-corrector)” value under setting [1] is reported as “+++ (≥350)”. In addition, the EC50 under setting [2] is below 3 µM and the EC50 under setting [4] was below 3 µM. In addition, the Emax under setting [3] was above 150%.
On to `CCc1cnc(OCCOC)c(C2(C(=O)NS(=O)(=O)c3cccc4[nH]ccc34)CC2)c1` [Example GI-109, 1-[5-ethyl-2-(2-methoxyethoxy)pyridin-3-yl]-N-(1H-indole-4-sulfonyl)cyclopropane-1-carboxamide], for which the “Maximum % activity (with co-corrector)” value under setting [1] is “+++ (≥350)”. Besides, the concentration giving a half-maximal response (EC50) by setting is: under setting [2], below 3 µM; under setting [4], 3 to 10 µM. For the same molecule, the Emax under setting [3] is above 150%.
The like results for `Cc1ccc2c(S(=O)(=O)NC(=O)C3(c4cc(C5CCC5)cnc4OCC4CC4)CC3)cccc2n1` [Example GI-110, 1-[5-cyclobutyl-2-(cyclopropylmethoxy)pyridin-3-yl]-N-(2-methylquinoline-5-sulfonyl)cyclopropane-1-carboxamide] were, in that order, “+++ (≥350)”, below 3 µM, below 3 µM and above 150%.
On to `COCCOc1ncc(C2CCC2)cc1C1(C(=O)NS(=O)(=O)c2cccc3ncccc23)CC1` [Example GI-111, 1-[5-cyclobutyl-2-(2-methoxyethoxy)pyridin-3-yl]-N-(quinoline-5-sulfonyl)cyclopropane-1-carboxamide], for which, under setting [1], the “Maximum % activity (with co-corrector)” value was “+++ (≥350)”. Further, the EC50 by setting is: under setting [2], below 3 µM; under setting [4], below 3 µM. For the same molecule, the Emax under setting [3] was above 150%.
With `CCc1cnc(OCCOC)c(C2(C(=O)NS(=O)(=O)c3cccc4ncccc34)CC2)c1` [Example GI-112, 1-[5-ethyl-2-(2-methoxyethoxy)pyridin-3-yl]-N-(quinoline-5-sulfonyl)cyclopropane-1-carboxamide], the “Maximum % activity (with co-corrector)” value under setting [1] is reported as “+++ (≥350)”. The EC50 was below 3 µM under setting [2] and 3 to 10 µM under setting [4]. Moreover, the Emax under setting [3] is above 150%.
The like results for `Cc1ccc2c(S(=O)(=O)NC(=O)C3(c4cc(C5CCC5)cnc4N4CCC(OC(C)C)CC4)CC3)cccc2n1` [Example GI-113, 1-(5-cyclobutyl-2-{4-[(propan-2-yl)oxy]piperidin-1-yl}pyridin-3-yl)-N-(2-methylquinoline-5-sulfonyl)cyclopropane-1-carboxamide] were, in that order, “+++ (≥350)”, below 3 µM, below 3 µM and above 150%.
The like results for `CCOc1ncc(C2CCC2)cc1C1(C(=O)NS(=O)(=O)c2cccc3ncccc23)CC1` [Example GI-114, 1-(5-cyclobutyl-2-ethoxypyridin-3-yl)-N-(quinoline-5-sulfonyl)cyclopropane-1-carboxamide] were, in that order, “+++ (≥350)”, below 3 µM, 3 to 10 µM and above 150%.
For `CCOc1ncc(C2CCC2)cc1C1(C(=O)NS(=O)(=O)c2cccc3nc(C)ccc23)CC1` [Example GI-115, 1-(5-cyclobutyl-2-ethoxypyridin-3-yl)-N-(2-methylquinoline-5-sulfonyl)cyclopropane-1-carboxamide] the same measures were “+++ (≥350)”, below 3 µM, below 3 µM and above 150%.
In the case of `CCOc1ncc(CC)cc1C1(C(=O)NS(=O)(=O)c2cccc3ncccc23)CC1` [Example GI-116, 1-(2-ethoxy-5-ethylpyridin-3-yl)-N-(quinoline-5-sulfonyl)cyclopropane-1-carboxamide], under setting [1], the “Maximum % activity (with co-corrector)” value was “+++ (≥350)”. Also, the half-maximal effective concentration (EC50) by setting is: under setting [2], below 3 µM; under setting [4], 3 to 10 µM. Besides, the Emax under setting [3] is above 150%.
The like results for `CCOc1ncc(CC)cc1C1(C(=O)NS(=O)(=O)c2cccc3nc(C)ccc23)CC1` [Example GI-117, 1-(2-ethoxy-5-ethylpyridin-3-yl)-N-(2-methylquinoline-5-sulfonyl)cyclopropane-1-carboxamide] were, in that order, “+++ (≥350)”, below 3 µM, below 3 µM and above 150%.
`COCC1CCN(c2ncc(C3CCC3)cc2C2(C(=O)NS(=O)(=O)c3cccc4[nH]ccc34)CC2)CC1` [Example GI-118, 1-{5-cyclobutyl-2-[4-(methoxymethyl)piperidin-1-yl]pyridin-3-yl}-N-(1H-indole-4-sulfonyl)cyclopropane-1-carboxamide]: under setting [1], the “Maximum % activity (with co-corrector)” value is “+++ (≥350)”. In addition, the EC50 by setting is: under setting [2], below 3 µM; under setting [4], below 3 µM. Also, the Emax under setting [3] was above 150%.
As for `COCC1(c2cnc(OC(C)C)c(C3(C(=O)NS(=O)(=O)c4cccc5ccccc45)CC3)c2)CC1` [Example GI-119, 1-{5-[1-(methoxymethyl)cyclopropyl]-2-[(propan-2-yl)oxy]pyridin-3-yl}-N-(naphthalene-1-sulfonyl)cyclopropane-1-carboxamide], under setting [1], the “Maximum % activity (with co-corrector)” value is on record as “+++ (≥350)”. Also, the EC50 runs as follows: under setting [2], below 3 µM; under setting [4], below 3 µM. Under setting [3], the Emax is above 150%.
